Reference: US7294637B2 (Sepracor, Inc., priority 2000, dated 2007)
Like-named read-outs stand apart in the source and are kept apart here.

How the values were obtained:
[1] = rodents, ex vivo binding; cited from earlier work
[2] = test system: rats and monkeys; conditions: cited from earlier work; for effect on self-administration of cocaine: rats and monkeys
[3] = molecular target: dopamine transporter (Rattus norvegicus, UniProt P23977); conditions: read-out: binding affinity for the dopamine transporter (IC50); cited from earlier work
[4] = locomotor activity tests; cited from earlier work
[5] = cited from earlier work; for time of peak uptake into the brain: dosed intravenously; for half-life in the brain: intravenous
[6] = baboon, cited from earlier work
[7] = molecular target: T1, norepinephrine transporter (Homo sapiens, UniProt P23975); experiment: NE uptake: displacement of norephinephrine ligands in vitro (methods of Galli et al.); format: binding; conditions: NE Uptake, Uptake Profile (IC50, nM)
[8] = molecular target: T2, serotonin transporter (Homo sapiens, UniProt P31645); experiment: 5-HT uptake: displacement of serotonin ligands in vitro (methods of Gu et al.); format: binding; conditions: 5-HT Uptake, Uptake Profile (IC50, nM)
[9] = test system: ICR derived mice; experiment: In vivo evaluation of 4: acute toxic symptoms, autonomic effects and mortality after i.v. dosing; parameters: species or system mouse; conditions: i.v., 5, 10, 20, and 30 mk/kg
Method: Compound 4 was administered i.v. to a group of 3 ICR derived male or female mice (˜22 gms) and observed for the presence of acute toxic symptoms (mortality, convulsions, tremors, muscle relaxation, sedation, etc.) and autonomic effects (diarrhea, salvation, lacrimation, vasodilation, piloerection, etc) during first 5 min (i.v).
Compound 4 was administered at doses of 5, 10, 20, and 30 mk/kg. […] After monitoring daily for 3 days, no mortality was observed.

[10] = molecular target: T3, DAT (Homo sapiens, UniProt Q01959); experiment: cell-based; parameters: expressed in transfected cells; conditions: hDAT cell line; read-out: DA Uptake, Functional Assays (antagonism, EC50)
[11] = molecular target: dopamine transporter (Homo sapiens, UniProt Q01959); experiment: DA uptake: displacement of dopamine ligands in vitro (methods of Gu et al.); conditions: DA Uptake, Uptake Profile (IC50, nM), displacement of dopamine ligands in vitro
[12] = molecular target: T1, norepinephrine transporter; experiment: Functional activity, norephinephrine uptake inhibition in MDCK cell lines; format: cell-based
[13] = test system: Sprague-Dawley rats; experiment: Spontaneous locomotor activity in rats (Example 123); format: in vivo, rat; conditions: 20 mg/kg i.p., 60 minutes after administration
Method: Male Sprague-Dawley rats, (Iffa Credo, Saint-Germain/L'Arbresle, France), weighing 200-250 g at the beginning of the study, were used.
During acclimatization period, rats were housed, 2 or 3 per cage, in Makrolon type III cages, in the animal room (temperature: 20±2° C., humidity: minimum 45%, air changes:>12 per hour, light/dark cycle of 12 h/12 h [on at 7:00 A.M.]). Animals were allowed a minimum of 5 days period before experiment for acclimatization.
Rats received food (TrouwNutrition, Vigny, France) and water (tap water in water bottle) ad libitum. Rats were placed on a sawdust bedding in their cages (Goldchips, Trouw Nutrition, Vigny, France). On the day before experiments, food was withdrawn to have animals fasted overnight.
On the day of experiment, test item(s) were solubilized in 5% dextrose (w/v)/polyethylene glycol (PEG) 400 (4:1 v/v).
All test compounds were administered at 20 mg/kg as a single i.p. dose.
Twenty, 60 and 120 minutes after administration, rats were placed in a plastic box 30×30 cm in a room with low light intensity (maximum 50 lux). Locomotor activity was determined during 20 min periods using a video image analyzer (Videotrack, View Point, France). Number of occurences, distance and duration of fast and slow movements, number of occurences and duration of periods of inactivity and number of rears were measured.

[14] = test system: mouse; experiment: Acute toxicity assessment, maximum tolerated dose i.v., mouse; format: in vivo; conditions: mice, 30 mg/kg i.v.
Method: (§1) An in vivo evaluation was carried out to determine the maximum tolerated dose of numerous test compounds in two animal species (mouse and rat). The compounds were administered i.v. and the animals were then observed for 72 h. Compounds 114, 115, 113, 110, 124, 125, 129, and 130 were solubilized in 5% dextrose (w/v)/polyethylene glycol 400 (4:1 v/v). Compounds 126, 127, 131, and 132 were solubilized in 10% hydroxypropyl-β-cyclodextrin (w/v).

[15] = test system: rat; experiment: Acute toxicity assessment, maximum tolerated dose i.v., rat; format: in vivo; conditions: rats, 30 mg/kg i.v.
Method: as §1

[16] = molecular target: T2, serotonin transporter; experiment: Functional activity, serotonin uptake inhibition in human HEK-293 cell lines; format: cell-based; parameters: expressed in transfected cells; host or cells: HEK-293; conditions: 5-HT Uptake, Functional Assays (antagonism, EC50, nM)
[17] = test system: Sprague-Dawley rats; experiment: Spontaneous locomotor activity in rats (Example 141); format: in vivo, rat; conditions: 10 mg/kg i.p.
Method: The effect of 124 and 126 on spontaneous locomotor activity in rats was determined according to the procedures outlined by Silverman et al. (Motor Activity. In “Animal behavior in the laboratory”, Chapman and Hall eds, London, p. 79-92, 1978) and Boissier et al. (Arch. Int. Pharmacodyn. 1965, 158, 212. )
Test items and test item vehicles were administered to male Sprague-Dawley rats (n=10) as a single i.p. dose (vehicle A=10% hydroxypropyl-β-cyclodextrin in water; vehicle B=4:1 5% aqueous dextrose:PEG 400). […] Locomotor activity was determined during 20 minute periods using video image analyzers. Images recorded with video cameras were digitalized and displacements of the center of gravity of the digital image spot were tracked and analyzed. When the speed of displacement of the center of gravity of the spot was below 4.26 cm/sec, the movement was considered as inactivity. When this speed was between 4.26 and 6.75 cm/sec, the movement was considered as a small movement. When this speed was above 6.75 cm/sec, the movement was considered as a large movement. The number of occurrences, distance and duration of fast and slow movements, number of occurrences and duration of periods of inactivity and number of rears were measured.

[18] = test system: Sprague-Dawley rats; experiment: Spontaneous locomotor activity in rats, 1-24 hours (Example 223); format: in vivo, rat; conditions: 10 mg/kg i.p.
Method: The effect of 124 and 126 on spontaneous locomotor activity in rats was determined according to the procedures outlined by Silverman et al. (Motor Activity. In “Animal behavior in the laboratory”, Chapman and Hall eds, London, p. 79-92, 1978) and Boissier et al. (Arch. Int. Pharmacodyn. 1965, 158, 212. ) Test items and test item vehicles were administered to male Sprague-Dawley rats (n=10) as a single i.p. dose. One, three, five, eight and twenty four hours following administration, rats were placed in a plastic box 30×30 cm in a room with low light intensity (maximum 50 lux). Locomotor activity was determined during 20 minute periods using video image analyzers. Images recorded with video cameras were digitalized and displacements of the center of gravity of the digital image spot were tracked and analyzed. When the speed of displacement of the center of gravity of the spot was below 4.26 cm/sec, the movement was considered as inactivity. When this speed was between 4.26 and 6.75 cm/sec, the movement was considered as a small movement. When this speed was above 6.75 cm/sec, the movement was considered as a large movement. The number of occurrences, distance and duration of fast and slow movements, number of occurrences and duration of periods of inactivity and number of rears were measured.

[19] = molecular target: T3, DAT; conditions: dosed orally, 60 mg; cited from earlier work

T2 sequence (P31645 whole entry): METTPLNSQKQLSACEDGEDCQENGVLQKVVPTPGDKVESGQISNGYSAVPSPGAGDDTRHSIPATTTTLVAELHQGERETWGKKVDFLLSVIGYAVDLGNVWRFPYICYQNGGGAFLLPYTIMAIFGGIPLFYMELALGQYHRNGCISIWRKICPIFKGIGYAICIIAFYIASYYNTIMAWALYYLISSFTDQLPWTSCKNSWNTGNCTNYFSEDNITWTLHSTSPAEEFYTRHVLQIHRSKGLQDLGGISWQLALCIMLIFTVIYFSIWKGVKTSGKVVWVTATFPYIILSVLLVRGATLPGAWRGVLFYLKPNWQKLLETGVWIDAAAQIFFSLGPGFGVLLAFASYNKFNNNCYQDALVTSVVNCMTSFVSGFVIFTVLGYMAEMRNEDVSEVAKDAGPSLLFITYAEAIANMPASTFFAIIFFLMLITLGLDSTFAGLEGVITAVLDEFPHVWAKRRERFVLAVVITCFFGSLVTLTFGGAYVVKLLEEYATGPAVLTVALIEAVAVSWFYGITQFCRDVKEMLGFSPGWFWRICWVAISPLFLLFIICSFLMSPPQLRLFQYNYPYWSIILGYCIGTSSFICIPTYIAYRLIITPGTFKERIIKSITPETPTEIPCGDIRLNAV
T3 sequence (Q01959 whole entry): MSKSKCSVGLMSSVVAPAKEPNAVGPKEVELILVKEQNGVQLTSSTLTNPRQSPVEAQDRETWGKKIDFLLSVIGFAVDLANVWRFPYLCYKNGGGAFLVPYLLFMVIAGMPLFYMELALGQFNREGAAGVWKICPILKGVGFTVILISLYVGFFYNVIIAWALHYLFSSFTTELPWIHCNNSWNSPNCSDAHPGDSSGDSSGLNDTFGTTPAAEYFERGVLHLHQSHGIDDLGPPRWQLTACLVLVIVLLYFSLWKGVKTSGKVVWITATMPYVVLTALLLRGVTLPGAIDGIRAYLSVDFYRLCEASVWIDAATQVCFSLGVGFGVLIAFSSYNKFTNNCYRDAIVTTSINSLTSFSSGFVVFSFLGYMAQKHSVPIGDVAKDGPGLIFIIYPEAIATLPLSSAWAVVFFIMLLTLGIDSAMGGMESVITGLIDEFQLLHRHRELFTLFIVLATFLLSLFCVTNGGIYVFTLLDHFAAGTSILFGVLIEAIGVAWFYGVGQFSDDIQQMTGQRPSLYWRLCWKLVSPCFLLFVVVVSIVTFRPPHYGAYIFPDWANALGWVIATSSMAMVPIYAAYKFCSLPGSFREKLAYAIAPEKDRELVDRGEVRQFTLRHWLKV
T1 sequence (P23975 whole entry): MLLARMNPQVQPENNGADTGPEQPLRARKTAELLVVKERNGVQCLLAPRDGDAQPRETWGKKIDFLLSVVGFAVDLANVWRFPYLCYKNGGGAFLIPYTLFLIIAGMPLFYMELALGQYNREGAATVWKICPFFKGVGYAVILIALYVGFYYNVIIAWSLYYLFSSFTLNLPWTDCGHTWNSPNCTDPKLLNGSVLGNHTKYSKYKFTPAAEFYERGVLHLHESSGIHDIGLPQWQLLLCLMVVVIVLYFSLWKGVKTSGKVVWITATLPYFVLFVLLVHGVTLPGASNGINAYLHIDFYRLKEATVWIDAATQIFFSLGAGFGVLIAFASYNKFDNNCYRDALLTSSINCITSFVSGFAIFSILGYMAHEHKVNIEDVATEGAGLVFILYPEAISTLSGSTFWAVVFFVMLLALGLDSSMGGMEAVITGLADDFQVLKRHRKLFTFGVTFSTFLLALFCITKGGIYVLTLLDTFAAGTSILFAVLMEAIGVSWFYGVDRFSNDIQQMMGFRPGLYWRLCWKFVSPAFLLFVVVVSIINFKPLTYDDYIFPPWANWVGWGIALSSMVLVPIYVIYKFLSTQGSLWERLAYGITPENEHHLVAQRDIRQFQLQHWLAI
Chain of dopamine transporter (Homo sapiens, UniProt Q01959) (Q01959 whole entry): as the sequence (Q01959 whole entry) above
Chain of dopamine transporter (Rattus norvegicus, UniProt P23977) (P23977 whole entry): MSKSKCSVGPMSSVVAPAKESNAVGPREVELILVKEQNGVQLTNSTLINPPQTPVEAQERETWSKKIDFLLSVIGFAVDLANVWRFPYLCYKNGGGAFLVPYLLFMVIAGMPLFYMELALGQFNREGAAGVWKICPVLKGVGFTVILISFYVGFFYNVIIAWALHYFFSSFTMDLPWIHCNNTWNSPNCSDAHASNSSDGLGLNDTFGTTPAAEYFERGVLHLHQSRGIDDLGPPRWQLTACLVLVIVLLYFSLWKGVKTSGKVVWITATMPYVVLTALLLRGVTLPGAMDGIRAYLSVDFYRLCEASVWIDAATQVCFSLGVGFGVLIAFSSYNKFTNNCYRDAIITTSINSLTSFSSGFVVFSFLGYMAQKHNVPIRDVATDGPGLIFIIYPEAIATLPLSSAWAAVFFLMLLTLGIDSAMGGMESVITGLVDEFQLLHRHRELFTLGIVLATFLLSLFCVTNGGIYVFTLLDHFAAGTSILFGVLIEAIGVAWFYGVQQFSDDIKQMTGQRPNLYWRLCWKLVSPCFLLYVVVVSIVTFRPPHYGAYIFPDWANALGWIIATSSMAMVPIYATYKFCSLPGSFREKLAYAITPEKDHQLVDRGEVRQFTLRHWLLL

## CCC(=O)[C@H]1[C@@H](c2ccc(C)cc2)C[C@@H]2CC[C@H]1N2C [PPT, 2β-propanoyl-3β-(4-tolyl)-tropane]
[1]
  time of onset after administration: ca. 30 minutes
[2]; monkeys
  addictiveness: not addictive
  decrease of self-administered cocaine intake: 70%

## CN1[C@H]2CC[C@@H]1[C@@H](C(=O)Oc1ccccc1)[C@@H](c1ccc(Cl)cc1)C2 [RTI-113]
[3]
  IC50: 0.00198 µM
[4]
  duration of action: over 4 hours
  time to peak action after administration: 30 to 60 min
[2]; 60% occupancy of the dopamine transporter
  effectiveness of elimination of cocaine consumption: 92%
[2]
  effect on self-administration of cocaine: inhibits self-administration of cocaine

## Cc1ccc(-c2cc([C@@H]3C4CCC(C[C@@H]3c3ccc(Cl)cc3)N4C)on2)cc1 (stereo partly drawn) [RTI-336]
[3]
  IC50: 0.00409 µM
[4]
  time to peak action after administration: 70 to 100 min
[2]
  effect on self-administration of cocaine: effective blocking of cocaine self-administration

## COC(=O)[C@H]1[C@@H](OC(=O)c2ccccc2)C[C@@H]2CC[C@H]1N2C [cocaine]
[5]
  time of peak uptake into the brain: 4 to 6 min
  half-life in the brain: 20 min
[6]; intravenous
  time to peak concentration in brain: 4 to 6 min

## Clc1ccc(C2(CN3CCCC(COc4ccccc4)C3)CCC2)cc1 (stereo not drawn) [compound 4]
[7]
  IC50: > 1000 nM
[8]
  IC50: > 1000 nM
[9]
  change in autonomic signs of behavior: No obvious change
[9]; monitored daily for 3 days
  mortality: no mortality
[10]
  EC50: < 1 µM
[11]
  IC50: < 1000 nM

## FC(F)(F)c1ccc(OC[C@H]2CCCN(CC3(c4ccc(Cl)cc4)CCC3)C2)cc1 [compound 115, (S)-1-[1-(4-chloro-phenyl)-cyclobutylmethyl]-3-(4-trifluoromethyl-phenoxymethyl)-piperidine]
[7]
  IC50: < 1000 nM
[8]
  IC50: > 1000 nM
[12]
  EC50: < 1 µM
[13]
  locomotor activity compared to control animals: significant increase
[14]
  tolerability and mortality after 72 h: well tolerated
[15]
  tolerability and mortality after 72 h: well tolerated
[10]
  EC50: < 0.01 µM
[16]
  EC50: > 1000 nM
[11]
  IC50: < 100 nM

## COC(=O)C(c1ccccc1)C1CCCCN1 (stereo not drawn) [methylphenidate, reference compound]
[17]; 20 min
  Large Movement Occurrences: 974.3 ± 125.5 ^
  Small Movement Occurrences: 1537.0 ± 97.3 ^
[17]; 60 min
  Large Movement Occurrences: 423.9 ± 75.9
  Small Movement Occurrences: 992.0 ± 126.7 ^
[17]; 120 min
  Large Movement Occurrences: 191.8 ± 37.1 ^
  Small Movement Occurrences: 555.0 ± 87.0
[18]; 1 hour
  Large Movement Occurrences: 958 ± 118 ^
  Small Movement Occurrences: 1595 ± 83 ^
[18]; 3 hours
  Large Movement Occurrences: 504 ± 114 ^
  Small Movement Occurrences: 1072 ± 122^
[18]; 5 hours
  Large Movement Occurrences: 196 ± 62^
  Small Movement Occurrences: 612 ± 108 ^
[18]; 8 hours
  Large Movement Occurrences: 71 ± 20 ^
  Small Movement Occurrences: 358 ± 65^
[18]; 24 hours
  Large Movement Occurrences: 335 ± 68^
  Small Movement Occurrences: 790 ± 81^
[5]
  time of peak uptake into the brain: 8 to 10 min
  half-life in the brain: 90 min
[19]
  DAT occupancy: 70-72%
  “high” in subjects: no “high” was observed
[6]; intravenous
  time to peak concentration in brain: 8 to 10 min
[6]; orally dosed
  time to peak concentration in brain: 60 min
